Measurements as given in patent US20250051277A1, “DELIVERY OF THERAPEUTIC ALKALOID COMPOUNDS” (Sensorium Therapeutics, Inc., priority 2021, published 2025).
Like-named read-outs stand apart in the source and are kept apart here.

Key:
[1] = 10 μM
[2] = 10 μM; remark: listed apart in the source
[3] = type: physicochemical; settings: SGF with pepsin, pH 1.5, 37° C., 0.5 mM
[4] = type: physicochemical; settings: DI water, 25° C., 0.5 mM

| SMILES | Prodrug (%) remaining, Human Plasma ([1]; 0 h) [%] | Prodrug (%) remaining, Human Plasma ([1]; 10 min) [%] | Prodrug (%) remaining, Human Plasma ([1]; 0.5 h) [%] | Prodrug (%) remaining, Human Plasma ([1]; 1 h) [%] | Prodrug (%) remaining, Human Plasma ([1]; 2 h) [%] | Prodrug (%) remaining, Human Plasma ([1]; 4 h) [%] | Prodrug (%) remaining, Rat Plasma ([2]; 0 h) [%] | Prodrug (%) remaining, Rat Plasma ([2]; 10 min) [%] | Prodrug (%) remaining, Rat Plasma ([2]; 0.5 h) [%] | Prodrug (%) remaining, Rat Plasma ([2]; 1 h) [%] | Prodrug (%) remaining, Rat Plasma ([2]; 2 h) [%] | Prodrug (%) remaining, Rat Plasma ([2]; 4 h) [%] | Condition 1 Conversion (%) ([3]; time 1 min) | Condition 1 Conversion (%) ([3]; time 5 min) | Condition 1 Conversion (%) ([3]; time 30 min) | Condition 1 Conversion (%) ([3]; time 1 h) | Condition 1 Conversion (%) ([3]; time 4 h) | Condition 1 Conversion (%) ([3]; time 24 h) | Condition 2 Conversion (%) ([4]; time 1 min) | Condition 2 Conversion (%) ([4]; time 5 min) | also measured |
| --- | --- | --- | --- | --- | --- | --- | --- | --- | --- | --- | --- | --- | --- | --- | --- | --- | --- | --- | --- | --- | --- |
| COc1ccc([C@@]23CCC(OC(=O)c4c(C)cc(C)cc4C)=C[C@@H]2N(C)CC3)cc1OC [Compound 356, (3aS,7aS)-3a-(3,4-dimethoxyphenyl)-1-methyl-2,3,3a,4,5,7a-hexahydro-1H-indol-6-yl2,4,6-trimethylbenzoate] | 100.0 | >99 | >99 | >99 | >99 | >99 | 100.0 | >99 | >99 | >99 | >99 | 95.8 | – | – | – | – | – | – | – | – | – |
| COc1ccc([C@@]23CCC(=NNc4ccc5ccccc5n4)C[C@@H]2N(C)CC3)cc1OC [Compound 366, N-[[(3aS,7aS)-3a-(3,4-dimethoxyphenyl)-1-methyl-2,3,4,5,7,7a-hexahydroindol-6-ylidene]amino]quinolin-2-amine] | – | – | – | – | – | – | – | – | – | – | – | – | 0 | 8.9 | 47.1 | 77.4 | 94.1 | 100 | 0 | 0 | Condition 2 Conversion (%) ([4]; time 30 min): 10.11%; Condition 2 Conversion (%) ([4]; time 1 h): 11.33%; Condition 2 Conversion (%) ([4]; time 4 h): 12.6%; Condition 2 Conversion (%) ([4]; time 24 h): 17.4% |
| COc1ccc([C@@]23CCC(=NNCc4cccc(C)c4)C[C@@H]2N(C)CC3)cc1OC [Compound 367, N-[[(3aS,7aS)-3a-(3,4-dimethoxyphenyl)-1-methyl-2,3,4,5,7,7a-hexahydroindol-6-ylidene]amino]-1-(m-tolyl)methanamine] | – | – | – | – | – | – | – | – | – | – | – | – | 100 | 100 | 100 | 100 | 100 | 100 | 5 | 8.3 | Condition 2 Conversion (%) ([4]; time 30 min): 11.5%; Condition 2 Conversion (%) ([4]; time 1 h): 11.92%; Condition 2 Conversion (%) ([4]; time 4 h): 13.32%; Condition 2 Conversion (%) ([4]; time 24 h): 20% |
| COc1ccc([C@@]23CCC(=NNCc4ccccn4)C[C@@H]2N(C)CC3)cc1OC [Compound 369, (3aS,7aS)-3a-(3,4-dimethoxyphenyl)-1-methyl-6-(2-(pyridin-2-ylmethyl)hydrazineylidene)octahydro-1H-indole] | – | – | – | – | – | – | – | – | – | – | – | – | 30 | 100 | 100 | 100 | 100 | 100 | 0 | 0 | Condition 2 Conversion (%) ([4]; time 30 min): 0%; Condition 2 Conversion (%) ([4]; time 1 h): 0%; Condition 2 Conversion (%) ([4]; time 4 h): 45%; Condition 2 Conversion (%) ([4]; time 24 h): 50% |
| COc1ccc([C@@]23CCC(=NNCc4cccnc4)C[C@@H]2N(C)CC3)cc1OC [Compound 370, N-[[(3aS,7aS)-3a-(3,4-dimethoxyphenyl)-1-methyl-2,3,4,5,7,7a-hexahydroindol-6-ylidene]amino]-1-(3-pyridyl)methanamine] | – | – | – | – | – | – | – | – | – | – | – | – | 20 | 40 | 100 | 100 | 100 | 100 | 0 | 0 | Condition 2 Conversion (%) ([4]; time 30 min): 0%; Condition 2 Conversion (%) ([4]; time 1 h): 10%; Condition 2 Conversion (%) ([4]; time 4 h): 30%; Condition 2 Conversion (%) ([4]; time 24 h): 70% |
| CCCCCCCC(=O)OC1=C[C@@H]2N(C)CC[C@]2(c2ccc(OC)c(OC)c2)CC1 [Compound 395, (3aS,7aS)-3a-(3,4-dimethoxyphenyl)-1-methyl-2,3,3a,4,5,7a-hexahydro-1H-indol-6-yl octanoate] | 100.0 | 13.9 | 3.5 | 1.1 | 0.3 | 0.1 | 100.0 | 0.3 | 0.1 | 0.1 | 0.1 | 0.1 | – | – | – | – | – | – | – | – | – |
| COc1ccc([C@@]23CCC(OC(=O)CCN)=C[C@@H]2N(C)CC3)cc1OC [Compound 397, (3aS,7aS)-3a-(3,4-dimethoxyphenyl)-1-methyl-2,3,3a,4,5,7a-hexahydro-1H-indol-6-yl3-aminopropanoate] | 100.0 | 2.2 | 0.5 | 0.1 | 0.2 | 0.0 | 100.0 | 10.5 | 0.5 | 0.1 | 0.1 | 0.1 | – | – | – | – | – | – | – | – | – |
| CCCC(CC)CC(=O)OC1=C[C@@H]2N(C)CC[C@]2(c2ccc(OC)c(OC)c2)CC1 (stereo partly drawn) [Compound 398, (3aS,7aS)-3a-(3,4-dimethoxyphenyl)-1-methyl-2,3,3a,4,5,7a-hexahydro-1H-indol-6-yl3-ethylhexanoate] | 100.0 | 96.4 | 85.0 | 72.4 | 51.6 | 25.5 | 100.0 | 2.8 | 0.7 | 0.1 | 0.0 | 0.0 | – | – | – | – | – | – | – | – | – |
| COc1ccc([C@@]23CCC(OC(=O)CCC(C)C)=C[C@@H]2N(C)CC3)cc1OC [Compound 399, (3aS,7aS)-3a-(3,4-dimethoxyphenyl)-1-methyl-2,3,3a,4,5,7a-hexahydro-1H-indol-6-yl4-methylpentanoate] | 100.0 | 5.6 | 1.1 | 0.5 | 0.3 | 0.2 | 100.0 | 0.0 | 0.0 | 0.0 | 0.0 | 0.0 | – | – | – | – | – | – | – | – | – |
| CCCCCC(C)C(=O)OC1=C[C@@H]2N(C)CC[C@]2(c2ccc(OC)c(OC)c2)CC1 (stereo partly drawn) [Compound 400, (3aS,7aS)-3a-(3,4-dimethoxyphenyl)-1-methyl-2,3,3a,4,5,7a-hexahydro-1H-indol-6-yl2-methylheptanoate] | 100.0 | 34.7 | 11.6 | 5.2 | 2.3 | 1.9 | 100.0 | 12.6 | 0.6 | 0.1 | 0.1 | 0.0 | – | – | – | – | – | – | – | – | – |
